# Test results taken from the NIST ThermoML archive (doi:10.1021/je400246s).
# Numbers after ± are expanded uncertainties.
# Assays:
# [1] = Molar enthalpy of transition or fusion; conditions: Crystal; DSC
# [2] = Crystal; DTA
Molar enthalpy of transition or fusion [1],Normal melting temperature [2],Compound
6.99 ± 0.454 kcal/mol,162.1 ± 1.1 °C,O=C1c2ccccc2C(=O)c2c(Cl)cccc21 [1-chloroanthraquinone]
8.49 ± 0.526 kcal/mol,233.2 ± 1.1 °C,O=C(O)c1cccc(Cl)c1C(=O)c1ccccc1 [2-benzoyl-3-chlorobenzoic acid]
